# Measurements as given in US20110230431A1, “FOSFOMYCIN/TOBRAMYCIN COMBINATIONS FOR THE TREATMENT AND PREVENTION OF OPHTHALMIC, OTOLOGICAL AND DERMATOLOGICAL INFECTIONS” (Gilead Sciences, Inc., priority 2008, published 2011).
# Read-outs that look alike come from different tables or passages of the source.
# Columns and labels:
# P. aeruginosa [1] = assay: MIC by agar plate dilution method (CLSI); assay type: cell-based, Pseudomonas aeruginosa; settings: Pseudomonas aeruginosa, read-out: MIC
# Description: P. aeruginosa strains isolated from patients with cystic fibrosis (CF) were obtained from Children's Hospital and Regional Medical Center (Seattle, Wash.). Clinical isolates of Escherichia coli and Staphylococcus aureus were obtained from The Jones Group Laboratories (JMI; North Liberty, Iowa) and The Clinical Microbiology Institute (CMI; Wilsonville, Oreg.). P. aeruginosa 27853, S. aureus 29213, and E. coli 25922 served as quality control strains^1 and were obtained from The America Type Culture Collection (ATCC; Manassas, Va.). P. aeruginosa ATCC 27853, a fosfomycin and tobramycin susceptible strain, was used in macromolecular biosynthesis and tobramycin uptake experiments. Stock cultures were maintained at −80° C. in Cation-Adjusted Mueller-Hinton Broth (CAMHB) (Remel; Lenexa, Kans.) supplemented with 20% glycerol (VWR: West Chester, Pa.). Cultures for routine use were grown on tryptic soy agar plates+5% sheeps blood (PML Microbiologicals Inc.; Wilsonville, Oreg.) and stored at 4° C.
# MICs were determined by the agar plate dilution method according to CLSI guidelines (National Committee for Clinical Laboratory Standards. M7-A6. 6th ed. Villanova (Pa.): NCCLS, 2003; M100-S14. Villanova (Pa.): NCCLS, 2004).
# S. aureus = assay type: cell-based, Staphylococcus aureus
# Experimental: (§1) Development of resistance after a single exposure to antibiotic was determined for both clinical and reference isolates of P. aeruginosa, S. aureus, and E. coli. Late Log-phase cultures were centrifuged at 1,400×g at room temperature for 20 min and the cell pellets resuspended in CAMHB. […] The culture plates were incubated at 37° C. for 48 h and the number of colonies on each plate was enumerated manually. The spontaneous mutation frequency (SMF) resulting in antibiotic resistance was calculated by dividing the number of bacteria growing at the defined antibiotic concentration by the number of bacteria in the inoculum (Martinex, J L, Antimicrob Agents Chemother 2000; 44 (1):1771-1777).
# P. aeruginosa [2] = assay type: cell-based, Pseudomonas aeruginosa
# Experimental: as §1
# E. coli = assay type: cell-based, Escherichia coli
# Experimental: as §1
# [3] = test system: Protein Synthesis in P. aeruginosa ATCC 27853; assay: Macromolecular biosynthesis: 3H-amino acid incorporation; assay type: cell-based, Pseudomonas aeruginosa
# Experimental: Picataway, N.J.) and N-acetyl-D-Glucosamine (^3H-NAG) (GE Healthcare Bio-Sciences), respectively (Baum, E Z, Antimicrob Agents Chernother 2001; 45 (11): 3182-3188). A single colony of P. aeruginosa ATCC 27853 was inoculated into 10 mL of CAMHB and incubated for 16 h, at 37° C., 200 rpm in a shaking water bath. […] At various time points, 100 μl aliquots (triplicate) of culture were removed and added to 100 μl of 20% TCA (VWR) in 96-well flat bottom trays (VWR). Plates were incubated on crushed ice for 60 min to precipitate the incorporated ^3H-precursors. Samples were harvested onto glass fibre filters (GFC) (PerkinElmer; Waltham, Mass.). Filters were washed two times with 35 mL of normal saline to remove unincorporated isotope followed by one wash with 35 mL of 90% ETOH (VWR). Filters were dried under a lamp for 1 h to reduce remaining moisture and then sealed in bags containing 5 mL of scintillation cocktail (Betaplate Scint; PerkinElmer). Counts per minute (CPM) were determined using a Wallac MicroBeta Trilux (PerkinElmer). Mean CPM±standard deviation (SD) were determined for each treatment group. Background counts consisting of a media-only sample were subtracted from the no-drug and antibiotic treatment groups. The percent inhibition of incorporation was determined relative to the no-drug controls. The activities of the three drugs were compared by calculating the time to 50% inhibition (T1/2), and statistical differences at each time point were evaluated by the Analysis of Variance (ANOVA; GraphPad Prisma software package 3.03; GraphPad Software, Inc., San Diego, Calif.). Each curve represents 4 replicate experiments, each time point performed in triplicate.
# P. aeruginosa ATCC 27853 = assay: Time-kill experiments in CAMHB with 2% mucin; assay type: cell-based, Pseudomonas aeruginosa
# Experimental: Time-kill experiments were performed according to a modified CLSI method (National Committee for Clinical Laboratory Standards. M-26A. Villanova (Pa.): NCCLS, 1999). […] Bacterial cultures and antibiotic(s) were incubated at 37° C. in a shaking water bath (200 rpm) and killing activity assessed at 0, 1, 2, 4, 6 and 24 h. Antibiotics that reduced the original inoculum by ≧3-Log10 were considered bactericidal. Antibiotics that reduced the original inoculum by ≦2-Log10 were considered bacteriostatic.
structure (smiles),measurement,setting,value
"C[C@@H]1O[C@@H]1P(=O)(O)O [Fosfomycin, fosfomycin disodium]",MIC,"P. aeruginosa [1]; ATCC27853, P. aeruginosa ATCC 27853",4 µg/mL
same,MIC,P. aeruginosa [1]; P. aeruginosa C002,4 µg/mL
same,MIC,P. aeruginosa [1]; P. aeruginosa C003,16 µg/mL
same,MIC,P. aeruginosa [1]; P. aeruginosa C013,32 µg/mL
same,MIC,P. aeruginosa [1]; P. aeruginosa C014,8 µg/mL
same,Frequency of Resistance 4× MIC,"S. aureus; S. aureus ATCC 29213, 4× MIC",2.6 × 10^−8
same,Frequency of Resistance 8× MIC,"S. aureus; S. aureus ATCC 29213, 8× MIC",5.0 × 10^−8
same,Frequency of Resistance 16× MIC,"S. aureus; S. aureus ATCC 29213, 16× MIC",<1.8 × 10^−10
same,Frequency of Resistance 4× MIC,"S. aureus; S. aureus C051, 4× MIC",3.0 × 10^−5
same,Frequency of Resistance 8× MIC,"S. aureus; S. aureus C051, 8× MIC",3.6 × 10^−7
same,Frequency of Resistance 16× MIC,"S. aureus; S. aureus C051, 16× MIC",8.4 × 10^−6
same,Frequency of Resistance 4× MIC,"S. aureus; S. aureus C053, 4× MIC",7.7 × 10^−3
same,Frequency of Resistance 8× MIC,"S. aureus; S. aureus C053, 8× MIC",1.7 × 10^−7
same,Frequency of Resistance 16× MIC,"S. aureus; S. aureus C053, 16× MIC",4.3 × 10^−6
same,Frequency of Resistance 4× MIC,"S. aureus; S. aureus C055, 4× MIC",2.5 × 10^−6
same,Frequency of Resistance 8× MIC,"S. aureus; S. aureus C055, 8× MIC",<4.3 × 10^−9
same,Frequency of Resistance 16× MIC,"S. aureus; S. aureus C055, 16× MIC",8.2 × 10^−6
same,Frequency of Resistance 4× MIC,"S. aureus; S. aureus C057, 4× MIC",2.1 × 10^−5
same,Frequency of Resistance 8× MIC,"S. aureus; S. aureus C057, 8× MIC",1.1 × 10^−7
same,Frequency of Resistance 16× MIC,"S. aureus; S. aureus C057, 16× MIC",2.0 × 10^−7
same,Frequency of Resistance 4× MIC,"P. aeruginosa [2]; P. aeruginosa ATCC 27853, 4× MIC",7.2 × 10^−4
same,Frequency of Resistance 8× MIC,"P. aeruginosa [2]; P. aeruginosa ATCC 27853, 8× MIC",1.1 × 10^−5
same,Frequency of Resistance 16× MIC,"P. aeruginosa [2]; P. aeruginosa ATCC 27853, 16× MIC",7.2 × 10^−5
same,Frequency of Resistance 4× MIC,"P. aeruginosa [2]; P. aeruginosa C002, 4× MIC",6.5 × 10^−3
same,Frequency of Resistance 8× MIC,"P. aeruginosa [2]; P. aeruginosa C002, 8× MIC",1.1 × 10^−4
same,Frequency of Resistance 16× MIC,"P. aeruginosa [2]; P. aeruginosa C002, 16× MIC",4.6 × 10^−4
same,Frequency of Resistance 4× MIC,"P. aeruginosa [2]; P. aeruginosa C003, 4× MIC",1.1 × 10^−6
same,Frequency of Resistance 8× MIC,"P. aeruginosa [2]; P. aeruginosa C003, 8× MIC",9.0 × 10^−5
same,Frequency of Resistance 16× MIC,"P. aeruginosa [2]; P. aeruginosa C003, 16× MIC",1.3 × 10^−4
same,Frequency of Resistance 4× MIC,"P. aeruginosa [2]; P. aeruginosa C013, 4× MIC",9.2 × 10^−3
same,Frequency of Resistance 8× MIC,"P. aeruginosa [2]; P. aeruginosa C013, 8× MIC",1.3 × 10^−5
same,Frequency of Resistance 16× MIC,"P. aeruginosa [2]; P. aeruginosa C013, 16× MIC",1.3 × 10^−7
same,Frequency of Resistance 4× MIC,"P. aeruginosa [2]; P. aeruginosa C014, 4× MIC",1.4 × 10^−4
same,Frequency of Resistance 8× MIC,"P. aeruginosa [2]; P. aeruginosa C014, 8× MIC",1.3 × 10^−6
same,Frequency of Resistance 16× MIC,"P. aeruginosa [2]; P. aeruginosa C014, 16× MIC",1.8 × 10^−6
same,Frequency of Resistance 4× MIC,"E. coli; E. coli ATCC 25922, 4× MIC",1.9 × 10^−5
same,Frequency of Resistance 8× MIC,"E. coli; E. coli ATCC 25922, 8× MIC",6.0 × 10^−6
same,Frequency of Resistance 16× MIC,"E. coli; E. coli ATCC 25922, 16× MIC",2.5 × 10^−5
same,Frequency of Resistance 4× MIC,"E. coli; E. coli C032, 4× MIC",4.4 × 10^−5
same,Frequency of Resistance 8× MIC,"E. coli; E. coli C032, 8× MIC",7.8 × 10^−5
same,Frequency of Resistance 16× MIC,"E. coli; E. coli C032, 16× MIC",2.1 × 10^−6
same,Frequency of Resistance 4× MIC,"E. coli; E. coli C036, 4× MIC",1.1 × 10^−6
same,Frequency of Resistance 8× MIC,"E. coli; E. coli C036, 8× MIC",2.3 × 10^−6
same,Frequency of Resistance 16× MIC,"E. coli; E. coli C036, 16× MIC",3.4 × 10^−6
same,Frequency of Resistance 4× MIC,"E. coli; E. coli C037, 4× MIC",1.9 × 10^−6
same,Frequency of Resistance 8× MIC,"E. coli; E. coli C037, 8× MIC",2.9 × 10^−6
same,Frequency of Resistance 16× MIC,"E. coli; E. coli C037, 16× MIC",8.6 × 10^−6
same,Frequency of Resistance 4× MIC,"E. coli; E. coli C294, 4× MIC",7.9 × 10^−5
same,Frequency of Resistance 8× MIC,"E. coli; E. coli C294, 8× MIC",5.4 × 10^−5
same,Frequency of Resistance 16× MIC,"E. coli; E. coli C294, 16× MIC",6.3 × 10^−5
same,time to 50% inhibition (T1/2) of protein synthesis,[3]; 6.4 μg/mL (FIG. 5),2.42 h
same,inhibition at 3.2 µg/mL,"[3]; Pseudomonas aeruginosa, ATCC27853, 3.2 μg/mL, at 2 h relative to no-drug control, single experiment",0%
same,inhibition at 6.4 µg/mL,"[3]; Pseudomonas aeruginosa, ATCC27853, 6.4 μg/mL, at 2 h relative to no-drug control, single experiment",21%
same,inhibition at 12.8 µg/mL,"[3]; Pseudomonas aeruginosa, ATCC27853, 12.8 μg/mL, at 2 h relative to no-drug control, single experiment",9%
same,killing activity at 24 h,"P. aeruginosa ATCC 27853; 24 h, FT4:1 16 μg/mL, fosfomycin 12.8 μg/mL, tobramycin 3.2 μg/mL, mucin, FIG. 4",re-growth of the bacterial culture
same,killing activity,"P. aeruginosa ATCC 27853; FT4:1 at 4×MIC (16 μg/mL), component weights fosfomycin 12.8 μg/mL, tobramycin 3.2 μg/mL, mucin, FIG. 4",bacteriostatic killing
same,"killing activity (bactericidal ≧3-Log10, bacteriostatic ≦2-Log10)","P. aeruginosa ATCC 27853; multiples of the MIC, FIG. 1-3",bacteriostatic
